Results from patent publication US8338587B2, “Compounds” (AstraZeneca AB, priority 2009, dated 2012).

What follows are molecules tested against T1, recombinant human GR (Homo sapiens, UniProt P04150) (assay: Human Glucocorticoid Receptor (GR) Assay (fluorescence polarization competition, Panvera/Invitrogen kit)). Conditions: GS Red Fluoromone tracer, 2 hours at room temperature, 100% control 10 μM Dexamethasone, read-out: Inhibition of GR binding, IC50.
T1 construct: purchased Panvera/Invitrogen P2812 (kit P2893)
T1 sequence (P04150 1-777): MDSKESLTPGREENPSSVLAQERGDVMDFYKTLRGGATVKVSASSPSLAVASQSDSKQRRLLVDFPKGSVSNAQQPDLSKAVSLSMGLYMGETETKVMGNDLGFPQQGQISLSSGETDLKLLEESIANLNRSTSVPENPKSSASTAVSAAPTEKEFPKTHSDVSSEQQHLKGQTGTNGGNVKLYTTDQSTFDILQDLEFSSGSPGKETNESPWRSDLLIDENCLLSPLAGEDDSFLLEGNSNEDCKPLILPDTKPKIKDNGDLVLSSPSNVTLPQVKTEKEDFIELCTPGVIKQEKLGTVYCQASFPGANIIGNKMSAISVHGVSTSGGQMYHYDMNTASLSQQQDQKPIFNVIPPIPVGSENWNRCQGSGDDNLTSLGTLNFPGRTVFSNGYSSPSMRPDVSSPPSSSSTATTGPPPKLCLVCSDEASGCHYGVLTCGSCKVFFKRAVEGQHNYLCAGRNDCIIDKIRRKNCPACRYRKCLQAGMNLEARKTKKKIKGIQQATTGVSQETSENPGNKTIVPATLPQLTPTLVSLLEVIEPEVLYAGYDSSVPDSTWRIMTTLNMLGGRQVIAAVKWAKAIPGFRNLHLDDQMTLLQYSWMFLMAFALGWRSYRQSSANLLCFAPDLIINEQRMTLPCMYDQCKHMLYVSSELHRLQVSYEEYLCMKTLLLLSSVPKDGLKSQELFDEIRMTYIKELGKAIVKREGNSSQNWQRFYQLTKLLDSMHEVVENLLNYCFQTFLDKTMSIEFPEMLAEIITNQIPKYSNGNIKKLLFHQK
Protocol: Human Glucocorticoid Receptor (GR) Assay The assay is based on a commercial kit from Panvera/Invitrogen (Part number P2893). The assay technology is fluorescence polarization. The kit utilises recombinant human GR (Panvera, Part number P2812), a Fluoromone™ labelled tracer (GS Red, Panvera, Part number P2894) and a Stabilizing Peptide 10× (Panvera, Part number P2815). The GR and Stabilizing Peptide reagents are stored at −70° C. while the GS Red is stored at −20° C. Also included in the kit are 1M DTT (Panvera, Part number P2325, stored at −20° C.) and GR Screening buffer 10× (Panvera, Part number P2814, stored at −70° C. initially but once thawed stored at room temperature). Avoid repeated freeze/thaws for all reagents. The GR Screening buffer 10× comprises 100 mM potassium phosphate, 200 mM sodium molybdate, 1 mM EDTA and 20% DMSO. Test compounds (1 μL) and controls (1 μL) in 100% DMSO were added to black is polystyrene 384-well plates (Greiner low volume black flat-bottom, part number 784076). 0% control was 100% DMSO and 100% control was 10 μM Dexamethasone. Background solution (8 μL; assay buffer 10×, Stabilizing Peptide, DTT and ice cold MQ water) was added to the background wells. GS Red solution (7 μL; assay buffer 10×, Stabilizing Peptide, DTT, GS Red and ice cold water) was added to all wells except background wells. GR solution (7 μL; assay buffer 10×, Stabilizing Peptide, DTT, GR and ice cold water) was added to all wells. The plate was sealed and incubated in a dark at room temperature for 2 hours. The plate was read in an Analyst plate reader (LJL Biosystems/Molecular Devices Corporation) or other similar plate reader capable of recording fluorescence polarization (excitation wavelength 530 nm, emission wavelength 590 nm and a dichroic mirror at 561 nm).
`C[C@]12Cc3cnn(-c4ccc(F)nc4)c3C=C1CC[C@H]1[C@@H]3CC[C@](OC(=O)[C@H]4CCCO4)(C(=O)SCCO)[C@@]3(C)C[C@H](O)[C@@]12F` [Example 14, (1R,3aS,3bS,10aS,10bR,11S,12aS)-10b-Fluoro-7-(6-fluoropyridin-3-yl)-11-hydroxy-1-{[(2-hydroxyethyl)sulfanyl]carbonyl}-10a,12a-dimethyl-1,2,3,3a,3b,4,5,7, 10, 10a, 10,11,12,12a-tetradecahydrocyclopenta[5,6]naphtho[1,2-f]indazol-1-yl (2R)-tetrahydrofuran-2-carboxylate] was tested, and the IC50 was 0.65 nM.
In the case of `C[C@]12Cc3cnn(-c4ccc(F)nc4)c3C=C1CC[C@H]1[C@@H]3CC[C@](OC(=O)[C@@H]4CCCO4)(C(=O)SCC#N)[C@@]3(C)C[C@H](O)[C@@]12F` [Example 17, (1R,3aS,3bS,10aS,10bR,11S,12aS)-1-{[(Cyanomethyl)sulfanyl]carbonyl}-10b-fluoro-7-(6-fluoropyridin-3-yl)-11-hydroxy-10a,12a-dimethyl-1,2,3,3a,3b,4,5,7,10,10a,10b,11,12,12a-tetradecahydrocyclopenta[5,6]naphtho[1,2-f]indazol-1-yl (2S)-tetrahydrofuran-2-carboxylate], the IC50 is reported as 0.55 nM.
In the case of `C[C@]12Cc3cnn(-c4ccc(F)nc4)c3C=C1CC[C@H]1[C@@H]3CC[C@](OC(=O)C4CC4)(C(=O)OCC#N)[C@@]3(C)C[C@H](O)[C@@]12F` [Example 19, (1R,3aS,3bS,10aS,10bR,11S,12aS)-1-{[Cyanomethyloxy]carbonyl}-10b-fluoro-7-(6-fluoropyridin-3-yl)-11-hydroxy-10a,12a-dimethyl-1,2,3,3a,3b,4,5,7,10,10a,10b,11,12,12a-tetradecahydrocyclopenta[5,6]naphtho[1,2-f]indazol-1-yl cyclopropanecarboxylate], the IC50 is reported as 1.4 nM.
With `C[C@H]1C[C@@H]2[C@H]([C@@H](O)C[C@@]3(C)[C@H]2CC[C@]3(OC(=O)c2ccco2)C(=O)SCF)[C@@]2(C)Cc3cnn(-c4ccc(F)nc4)c3C=C12` [Example 21, (1R,3aS,3bS,5S,10aR,10bS,11S,12aS)-1-{[(Fluoromethyl)sulfanyl]carbonyl}-7-(6-fluoropyridin-3-yl)-11-hydroxy-5,10a,12a-trimethyl-1,2,3,3a,3b,4,5,7,10,10a,10b,11,12,12a-tetradecahydrocyclopenta[5,6]naphtho[1,2-f]indazol-1-yl furan-2-carboxylate] the IC50 was 2.8 nM.
Molecule `C[C@H]1C[C@@H]2[C@H]([C@@H](O)C[C@@]3(C)[C@H]2CC[C@]3(OC(=O)c2ccco2)C(=O)SCC#N)[C@@]2(C)Cc3cnn(-c4ccc(F)nc4)c3C=C12` [Example 22, (1R,3aS,3bS,5S,10aR,10bS,11S,12aS)-1-{[(Cyanomethyl)sulfanyl]carbonyl}-7-(6-fluoropyridin-3-yl)-11-hydroxy-5,10a,12a-trimethyl-1,2,3,3a,3b,4,5,7,10,10a,10b,11,12,12a-tetradecahydrocyclopenta[5,6]naphtho[1,2-f]indazol-1-yl furan-2-carboxylate] has an IC50 of 1.7 nM.
`CCC(=O)O[C@]1(C(=O)SCC#N)CC[C@H]2[C@@H]3C[C@H](C)C4=Cc5c(cnn5-c5ccc(F)nc5)C[C@]4(C)[C@H]3[C@@H](O)C[C@@]21C` [Example 23, (1R,3aS,3bS,5S,10aR,10bS,11S,12aS)-1-{[(Cyanomethyl)sulfanyl]carbonyl}-7-(6-fluoropyridin-3-yl)-11-hydroxy-5,10a,12a-trimethyl-1,2,3,3a,3b,4,5,7,10,10a,10b,11,12,12a-tetradecahydrocyclopenta[5,6]naphtho[1,2-f]indazol-1-yl propanoate] showed an IC50 of 1 nM.
For `COCC(=O)O[C@]1(C(=O)SCC#N)CC[C@H]2[C@@H]3C[C@H](C)C4=Cc5c(cnn5-c5ccc(F)nc5)C[C@]4(C)[C@H]3[C@@H](O)C[C@@]21C` [Example 24, (1R,3aS,3bS,5S,10aR,10bS,11S,12aS)-1-{[(Cyanomethyl)sulfanyl]carbonyl}-7-(6-fluoropyridin-3-yl)-11-hydroxy-5,10a,12a-trimethyl-1,2,3,3a,3b,4,5,7,10,10a,10b,11,12,12a-tetradecahydrocyclopenta[5,6]naphtho[1,2-f]indazol-1-yl methoxyacetate], the IC50 was 1.1 nM.
Work on `C[C@H]1C[C@@H]2[C@H]([C@@H](O)C[C@@]3(C)[C@H]2CC[C@]3(OC(=O)C2CC2)C(=O)SCF)[C@@]2(C)Cc3cnn(-c4ccc(F)nc4)c3C=C12` [Example 25, (1R,3aS,3bS,5S,10aR,10bS,11S,12aS)-1-{[(Fluoromethyl)sulfanyl]carbonyl}-7-(6-fluoropyridin-3-yl)-11-hydroxy-5,10a,12a-trimethyl-1,2,3,3a,3b,4,5,7,10,10a,10b,11,12,12a-tetradecahydrocyclopenta[5,6]naphtho[1,2-f]indazol-1-yl cyclopropanecarboxylate] yielded an IC50 of 1.2 nM.
In the case of `CCC(=O)O[C@]1(C(=O)SCC#N)[C@H](C)C[C@H]2[C@@H]3CCC4=Cc5c(cnn5-c5ccc(F)cc5)C[C@]4(C)[C@@]3(F)[C@@H](O)C[C@@]21C` [Example 26, (1R,2R,3aS,3bS,10aS,10bR,11S,12aS)-10b-Fluoro-1-{[(cyanomethyl)sulfanyl]carbonyl}-7-(4-fluorophenyl)-11-hydroxy-2,10a,12a-trimethyl-1,2,3,3a,3b,4,5,7,10,10a,10b,11,12,12a-tetradecahydrocyclopenta[5,6]naphtho[1,2-f]indazol-1-yl propanoate], the IC50 is reported as 17 nM.
For `COCC(=O)O[C@]1(C(=O)SCC#N)[C@H](C)C[C@H]2[C@@H]3CCC4=Cc5c(cnn5-c5ccc(F)cc5)C[C@]4(C)[C@@]3(F)[C@@H](O)C[C@@]21C` [Example 27, (1R,2R,3aS,3bS,10aS,10bR,11S,12aS)-10b-Fluoro-1-{[(cyanomethyl)sulfanyl]carbonyl}-7-(4-fluorophenyl)-11-hydroxy-2,10a,12a-trimethyl-1,2,3,3a,3b,4,5,7,10,10a,10b,11,12,12a-tetradecahydrocyclopenta[5,6]naphtho[1,2-f]indazol-1-yl methoxyacetate], the IC50 was 6 nM.
`C[C@@H]1C[C@H]2[C@@H]3CCC4=Cc5c(cnn5-c5ccc(F)cc5)C[C@]4(C)[C@@]3(F)[C@@H](O)C[C@]2(C)[C@@]1(OC(=O)c1cocn1)C(=O)SCF` [Example 28, (1R,2R,3aS,3bS,10aS,10bR,11S,12aS)-10b-Fluoro-1-{[(fluoromethyl)sulfanyl]carbonyl}-7-(4-fluorophenyl)-11-hydroxy-2,10a,12a-trimethyl-1,2,3,3a,3b,4,5,7,10,10a,10b,11,12,12a-tetradecahydrocyclopenta[5,6]naphtho[1,2-f]indazol-1-yl 1,3-oxazole-4-carboxylate] gave an IC50 of 15 nM.
Work on `C[C@@H]1C[C@H]2[C@@H]3CCC4=Cc5c(cnn5-c5ccc(F)cc5)C[C@]4(C)[C@@]3(F)[C@@H](O)C[C@]2(C)[C@@]1(OC(=O)c1cocn1)C(=O)SCC#N` [Example 29, (1R,2R,3aS,3bS,10aS,10bR,11S,12aS)-10b-Fluoro-1-{[(cyanomethyl)sulfanyl]carbonyl}-7-(4-fluorophenyl)-11-hydroxy-2,10a,12a-trimethyl-1,2,3,3a,3b,4,5,7,10,10a,10b,11,12,12a-tetradecahydrocyclopenta[5,6]naphtho[1,2-f]indazol-1-yl 1,3-oxazole-4-carboxylate] yielded an IC50 of 5.5 nM.
